According to PMC4520625 (Biochemistry, 2015):

Columns and labels:
[1] = molecular target: galectin-3 CRD (Homo sapiens, UniProt P17931); experiment: Isothermal titration calorimetry, galectin-3 CRD; assay type: binding
[2] = molecular target: galectin-3 (full-length) (Homo sapiens, UniProt P17931); experiment: Isothermal titration calorimetry, full-length galectin-3; assay type: binding
[3] = molecular target: N-terminal domain of galectin-9 (Homo sapiens, UniProt O00182); assay type: cell-based; conditions: CHO wild-type cells, 1 mM
Sequence of N-terminal domain of galectin-9 (O00182 1-148): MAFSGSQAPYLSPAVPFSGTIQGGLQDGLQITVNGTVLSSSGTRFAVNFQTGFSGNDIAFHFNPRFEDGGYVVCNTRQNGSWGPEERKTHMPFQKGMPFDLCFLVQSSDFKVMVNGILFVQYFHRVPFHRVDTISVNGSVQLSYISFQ

[4] = molecular target: galectin-3 (Homo sapiens, UniProt P17931); experiment: Cell-based assay: inhibition of galectin-3 surface staining of SW480 cells; conditions: peptides at up to 1 mM
Sequence of galectin-3 (P17931 whole entry): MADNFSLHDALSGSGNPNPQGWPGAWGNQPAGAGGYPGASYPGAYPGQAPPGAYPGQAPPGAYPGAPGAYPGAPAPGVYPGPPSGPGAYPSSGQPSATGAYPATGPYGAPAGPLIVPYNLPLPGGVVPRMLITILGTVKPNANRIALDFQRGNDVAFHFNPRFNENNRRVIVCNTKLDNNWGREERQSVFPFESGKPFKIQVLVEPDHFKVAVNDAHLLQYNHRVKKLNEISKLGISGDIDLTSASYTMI

Sequence of galectin-3 CRD (P17931 118-248 limits assumed): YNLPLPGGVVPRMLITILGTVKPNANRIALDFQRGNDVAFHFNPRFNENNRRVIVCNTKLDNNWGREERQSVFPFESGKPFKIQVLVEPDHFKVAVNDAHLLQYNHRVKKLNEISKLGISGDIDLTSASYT
Sequence of galectin-3 (full-length) (P17931 whole entry, the tested form may be a part): as the sequence (P17931 whole entry) above

| Compound | Kd [1] [µM] | n (stoichiometry) ([1]; galectin-3 CRD, ITC) | –TΔS ([1]; galectin-3 CRD, ITC) [kcal/mol] | –ΔG ([1]; galectin-3 CRD, ITC) [kcal/mol] | –ΔH ([1]; galectin-3 CRD, ITC) [kcal/mol] | Ka ([1]; galectin-3 CRD, ITC, 25 °C, pH 7.2) | Kd [2] [µM] | n (stoichiometry) ([2]; full-length galectin-3, ITC) | –TΔS ([2]; full-length galectin-3, ITC) [kcal/mol] | –ΔH ([2]; full-length galectin-3, ITC) [kcal/mol] | Ka ([2]; full-length galectin-3, ITC, 25 °C, pH 7.2) | inhibition of galectin-9 binding to cells (in words) [3] | inhibition of galectin-3 binding to cells (in words) [4] |
| --- | --- | --- | --- | --- | --- | --- | --- | --- | --- | --- | --- | --- | --- |
| CC(=O)N[C@H]1C(O)O[C@H](CO)[C@H](O)[C@@H]1O[C@@H]1O[C@H](CO)[C@H](O)[C@H](O)[C@H]1O (stereo partly drawn) [TF, 2-acetamido-2-deoxy-3-O-(β-D-galactopyranosyl)-D-galactopyranose] | 248 | 0.93 | 9.11 | 4.94 | 14.05 | 0.40 ×10^–4 M^–1 | 245 | 0.82 | 3.30 | 8.74 | 0.40 ×10^–4 M^–1 |  |  |
| OC[C@H]1O[C@@H](O[C@H]2[C@H](O)[C@@H](O)C(O)O[C@@H]2CO)[C@H](O)[C@@H](O)[C@H]1O (mixture of isomers) [Lac, lactose] |  |  |  |  |  |  |  |  |  |  |  | inhibitory |  |
| CC(=O)N[C@H]1C(O)O[C@H](CO)[C@H](O)[C@@H]1O (some centres unmarked) [GalNAc, N-acetylgalactosamine] |  |  |  |  |  |  |  |  |  |  |  | inhibitory | less active than Lac |
